Data reported in patent US20050042714A1, “Glycoconjugates of sialic acid derivates, methods for their production and use thereof” (priority 2001, published 2005).

Tests used:
CD75s in BJA-B K20 cells = experiment: de novo expression of sialoglycan CD75s by indirect immunofluorescence (antibody HH2); format: cell-based, human; settings: serum-free, 5 mM, 0-6 h
Method: Kinetics of 9-iodo-NeuAc-induced expression of sialoglycan CD75s in BJA-B K20 cells in comparison with its precursor 6-iodo-ManNAc. Cells were cultivated under serum-free conditions for at least 7 d and then either ManNAc, 6-iodo-ManNAc, 9-iodo-NeuAc or NeuAc (each 5 mM) was added. The de novo expression of CD75s was monitored at the indicated time points by indirect immunofluorescence using fixed and permeabilized cells. Representative confocal pictures of two independent experiments are shown.
The superiority of biosynthetic incorporation of sialic acid variants by NeuAc derivatives over derivatized ManNAc precurors was shown by directly comparing 9-iodo-NeuAc and the corresponding 6-iodo-ManNAc. K20 cells cultivated under serum-free conditions were incubated for 0-6 h with either 9-iodo-NeuAc or 6-iodo-ManNAc prior to analysis of CD75s expression. CD75s is an α-2,6 sialylated cell surface antigen of mature B-lymphocytes which is not detectable with the monoclonal antibody HH2 in K20 cells cultured in the absence of serum. […] We conclude that presentation of C9-modified sialic acids on the cell surface is only possible by medium supplementation with sialic acid analogues, but not with ManNAc analogues. […]

[1] = tested on: B-lymphotropic papovavirus (LPV) in BJA-B K20 cells; settings: NeuAc treatment, stated as known; cited from earlier work
HL60-I cells [2] = experiment: metabolic complementation assay: lectin staining (VVA, LFA, TLM) of analogue-treated cells by flow cytometry; format: cell-based, human; settings: 5 mM, 24 h; for effect on VVA binding: decrease = masking of GalNAc by sialic acid
Method: Medium supplementation with some synthetic sialic acid analogues restores cell surface sialylation in hyposialylated HL60-I cells. Cells were cultivated in the presence of indicated synthetic sialic acid analogue (5 mM) for 24 h and stained with either directly fluorochrome-coupled lectins (VVA, LFA) or biotin-coupled lectin (TLM) and streptavidin-FITC and analyzed by flow cytometry. Values are given as “relative factor of change” (RFC) of the “mean fluorescence intensity” (MFI) of sialic acid-treated cells relative to untreated cells. The bars represent arithmetic means±SD (n^34) of one (x) or ≧two experiments.
To test whether cells can incorporate synthetic sialic acid analogues from the culture medium, a metabolic complementation assay was performed on endogenously hyposialylated, UDP-GlcNAc-2-epimerase-deficient HL60-I cells.
Cells were cultivated for 24 h in the presence of one of 16 different synthetic sialic acid analogues, carrying distinct C5 or C9 modifications (FIG. 1), and subsequently, changes in cell surface sialylation were assessed by flow cytometry using three fluorochrome-conjugated sialic acid-sensitive lectins. Vicia villosa agglutinin (VVA) detects GalNAc residues, and its binding sites can be masked by the addition of terminal sialic acid residues.
In sugar supplementation assays, cells seeded at 5×10^5 cells/ml in culture medium buffered with 40 mM HEPES (pH 7.2) were cultivated for 24 h in the presence or absence of 5 mM sialic acids (stocks of 100 mM dissolved in H2O, stored at 4° C.).
(§1) Lyophilized FITC-conjugated lectins Vicia villosa (VVA) was obtained from Sigma, dissolved in H2O (1 mg/ml), aliquoted and stored at −20° C. according to the manufacturer's instructions. FITC-conjugated Limax flavus agglutinin (LFA) was from EY Laboratories (San Manteo, Calif., USA) and biotin-coupled Tritrichomonas mobilensis agglutinin (TLM) from Calbiochem. Lectin staining procedure and fluorescence-activated cell scanning on a Becton Dickinson FACScan cytometer using Cellquest II software were carried out as described (Keppler, O. T., Molden-hauer, G., Oppenländer, M., Schwartz-Albiez, R., Berger, E. G., Funderud, S., and Pawlita, M. (1992) Eur J Immunol 22(11), 2777-81). Briefly, cells (3×10^5) were washed twice in cold PBS and then incubated in 100 μl PBS/0.05% NaN3, containing either fluorochrome-conjugated lectins VVA (50 μg/ml), LFA (20 μg/ml), or biotinylated TLM (20 μg/ml) for 45 min on ice in the dark. For biotinylated TLM a secondary incubation step with steptavidin-FITC (20 μg/ml) (Sigma) for 30 min on ice in the dark is required. After washing with PBS, cells were resuspended in 300 μl PBS and analyzed by flow cytometry.

[3] = tested on: B-lymphotropic papovavirus (LPV) in BJA-B K88 cells; experiment: LPV infection of analogue-treated normally sialylated cells (VP1 ELISA); format: cell-based, human
Method: Changes in permissivity for the sialic acid-dependent B-lymphotropic papovavirus (LPV) in hyposialylated (K20) and normally sialylated (K88) BJA-B cells after treatment with sialic acid analogues. Cells were treated with analogues or NeuAc for 3d. 50 h post LPV inoculation the LPV infection was quantified (A) by detecting the amount of LPV VP1 in cell lysates relative to the total protein content by ELISA and (B) by indirect immunofluorescence microscopy as percentage of LPV T-antigen-positive BJA-B K20 cells. A, values are given as arithmetic means±SD of three independent experiments. B, representatives of three experiments are shown. DAPI-staining (left) indicates the total amount of cells in the section, on the right LPV T-antigen positive cells are shown with the average percentage given beside. […]
BJA-B subclones were infected with the B-lymphotropic papovavirus (LPV) as described (Keppler, O. T., Herrmann, M., Oppenländer, M., Meschede, W., and Pawlita, M. (1994) J Virol 68(11), 6933-9). […] LPV infection was quantified by indirect immunofluorescence microscopy as percentage of LPV T-antigen positive cells and the amount of LPV VP1 in cell lysates was determined by ELISA relative to the total protein extracted.

HL60-I cells [4] = experiment: uptake of peracetylated/esterified NeuAc: VVA and TML lectin staining by flow cytometry; format: cell-based, human; settings: HL60-I cells, 0.03 to 1 mM (NeuAc 1 or 5 mM), 72 h, 0.5% DMSO
Method: Peracetylation of NeuAc only facilitates uptake if the carboxyl group is additionally esterified. Hyposialylated HL60-I cells were cultivated in the presence of indicated synthetic sialic acid analogue (stock solution 200 mM in DMSO) ranging from 0.03 to 1 mM or 0, 1 or 5 mM NeuA for 72 h with DMSO concentrations adjusted to 0.5%. Cells were stained with either directly fluorochrome-coupled lectin VVA, or biotin-coupled lectin (TML) and streptavidin-FITC for analysis by flow cytometry. Values given are relative factors of change of the mean fluorescence intensity of pretreated cells relative to untreated cells. The bars represent arithmetic means±SD (n=3). Molecular structures are given below the diagram.
Sugars are very hydrophilic and it has been shown that increasing the hydrophobicity by peracetylation of hydroxyl groups enables or facilitates uptake of disaccharides (Collins, B. E., Fralich, T. J., Itonori, S., Ichikawa, Y. and Schnaar, R. L. (2000) Glycobiology, 10, 11-20; Sarkar, A. K., Fritz, T. A., Taylor, W. H. and Esko, J. D. (1995) Proc Natl Acad Sci USA, 92, 3323-7; Sarkar, A. K., Rostand, K. S., Jain, R. K., Matta, K. L. and Esko, J. D. (1997) J Biol Chem, 272, 25608-16). For ManNAc derivatives it has been shown that peracetylation reduces required medium concentrations (Collins et al., 2000). The acetyl groups are cleaved-off intracellularly by cellular esterases (Collins et al., 2000; Sarkar et al., 1995; Sarkar et al., 1997) and the derivatives are then processed as known for the non-acetylated sugars. In order to address the question whether peracetylation also facilitates uptake of N-acetylneuraminic acid, HL60-I cells were cultivated in the presence of peracetylated NeuAc at concentrations ranging from 0.03 mM to 1 mM for 3 days. Changes in cell surface sialylation were measured by flow cytometry using Vicia Villosa agglutinin (VVA) and Tritrichomonas mobilensis lectin (TML). […] This represents a reduction in concentration by more than 16-fold and is in a similar range as reported for peracetylated ManNAc and ManNAc (Collins et al., 2000).
as §1

BJA-B K20 cells = experiment: HPLC of membrane-associated sialic acids from analogue-treated cells; format: cell-based, human; settings: serum-free, 5 mM, 48 h
Method: Sialic acid analogues are incorporated in cell surface glycoconjugates. HPLC chromatograms of DMB-derivatised sialic acids hydrolysed from glycoproteins of sialic acid analogue-treated BJA-B K20 cells. (A) standards, (B) untreated cells, (C) cells cultivated in 5-N-fluoroacNeu, (D) cells cultivated in 9-iodo-NeuAc. Peaks were identified as follows: NeuGc (internal standard), NeuAc, 5-N-fluoroac-Neu, 9-iodo-NeuAc, Na-pyruvate (internal standard). Internal standards were added to each sample.
To confirm that synthetic sialic acid analogues supplementing the medium were taken up and metabolically incorporated as analogues into surface sialoglyco-conjugates the membrane-associated sialic acid fraction was analyzed by High Performance Liquid Chromatography (HPLC). […]
To confirm that the modifications are still present after incorporation into glycoconjugates sialic acids were cleaved off cell surfaces and analyzed by HPLC. […] Sialic acids derivation was performed according to a method as given below and samples were analyzed on a reversed-phase C18 column as described (Keppler, O. T., Stehling, P., Herrmann, M., Kayser, H., Grunow, D., Reutter, W., and Pawlita, M. (1995) J Biol Chem 270(3), 1308-14).

[5] = stability under physiological conditions; format: physicochemical; settings: most likely hydrolysed to NeuAc in the cytoplasm

Row | stability under physiological conditions [5] | Compound | effect on CD75s expression within 6 h (CD75s in BJA-B K20 cells) | cells infected by LPV [1] | increase of LFA binding (relative factor of change of mean fluorescence intensity vs untreated cells) (HL60-I cells [2]) [fold] | increase of TLM binding (relative factor of change of mean fluorescence intensity vs untreated cells) (HL60-I cells [2]) [fold] | effect on VVA binding (HL60-I cells [2]) | LPV-permissivity [3] | effect on cell surface sialylation (VVA and TML binding) (HL60-I cells [4]) | effect on LFA binding (HL60-I cells [2]) | effect on TLM binding (HL60-I cells [2]) | share of membrane-associated sialic acids consisting of the analogue (BJA-B K20 cells) [%] | time to strong intracellular CD75s signal (CD75s in BJA-B K20 cells) [h] | effect on LFA binding (HL60-I cells [2]; listed as NeuAc-Me-Ester) | effect on TLM binding (HL60-I cells [2]; listed as NeuAc-Me-Ester)
1 | – | CC(=O)N[C@@H]1C(O)O[C@H](CI)[C@@H](O)[C@@H]1O (stereo partly drawn) [6-iodo-ManNAc, reference compound] | did not show any effect | – | – | – | – | – | – | – | – | – | – | – | –
2 | – | CC(=O)N[C@H]1[C@H]([C@H](O)[C@H](O)CO)OC(O)(C(=O)O)C[C@@H]1O (stereo partly drawn) [NeuAc, N-acetyl neuraminic acid, reference compound] | – | about 17% | 9.5 | 4.8 | decreased markedly | did not change permissivity significantly | significant changes in lectin binding | – | – | – | – | – | –
3 | – | CC(=O)N[C@H]1[C@H]([C@H](O)[C@H](O)CI)OC(O)(C(=O)O)C[C@@H]1O (stereo partly drawn) [analogue f, 5-N-acetyl-9-deoxy-9-iodo-neuraminic acid] | – | – | 19.2 | 6.4 | significantly decreased VVA-binding | – | – | increased binding of LFA | increased binding | 86.1 | ≤ 1 | – | –
4 | unstable under physiological conditions | COC(=O)C1(O)C[C@H](O)[C@@H](NC(C)=O)[C@H]([C@H](O)[C@H](O)CO)O1 (stereo partly drawn) [analogue o, methyl N-acetyl neuraminate] | – | – | – | – | significantly decreased VVA-binding | – | did not affect uptake | increased binding of LFA | increased binding | – | – | very similar to those of NeuAc | very similar to those of NeuAc
